Here are results for three molecules from paper PMC10485820 (European Journal of Pharmaceutical Sciences, 2023).

The structures appear in SMILES notation. Read-outs that look alike come from different tables or passages of the source.

The subject of data set [1] is primary human plated hepatocytes. In words: Metabolic stability in human plated hepatocytes. The conditions noted are these: incubation up to 48 h, HSK7653 at 0.05 μM.
Protocol: Reactions were stopped by removing the plates from the incubator and mixing the incubation solution with 600 μL of ice-cold stop solution (acetonitrile) at the corresponding sampling time points.
Data set [2] can be described thus: Apparent permeability in Caco-2 monolayer cell lines. The conditions noted are these: human, Caco-2, positive controls. Format: in vitro ADME. The procedure: All experiments were performed in triplicate and analyzed by high-performance liquid chromatography with tandem mass spectrometry (HPLC-MS/MS). The apparent permeability coefficient (Papp) of each compound under the corresponding concentration was calculated according to Eq. (1) and listed as follows:(1) Papp=dQ/dt×1/A×C0 Where Papp was the apparent permeability coefficient (cm/s × 10^−6), dQ/dt (pmol/second) was the rate at which the compound appears in the receiver side, C0 (nM) was the initial concentration of the compound in the donor side, and A (cm^2) represented the surface area of the cell monolayer.

Take `CC[C@@]1(c2ccccc2)NC(=O)N(C)C1=O` [S-mephenytoin]: the “Half-life (t1/2) in human hepatocytes” value in data set [1] was found to be 21.7 h.
Regarding `C[C@H]1O[C@@H](O[C@H]2[C@@H](O)C[C@H](O[C@H]3[C@@H](O)C[C@H](O[C@H]4CC[C@@]5(C)[C@H](CC[C@@H]6[C@@H]5C[C@@H](O)[C@]5(C)[C@@H](C7=CC(=O)OC7)CC[C@]65O)C4)O[C@@H]3C)O[C@@H]2C)C[C@H](O)[C@@H]1O` [digoxin, reference compound], in data set [2] (read-out: Papp), the Papp at 2 h was found to be 1.85 ×10⁻⁶ cm/s.
Take `CC(C)NCC(O)COc1cccc2ccccc12` (stereo not shown) [propranolol, reference compound]: the Papp at 2 h in data set [2] (apical pH: basolateral pH 7.4: 7.4, read-out: Caco-2 permeability, calibration input) came to 33 ×10⁻⁶ cm/s; in data set [2] (read-out: Papp) it was 33 ×10⁻⁶ cm/s.
